Measured values as given in ChEMBL document CHEMBL1201862, “PubChem BioAssay data set” (2004).
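96-well plates; 48 h exposure; 5 concentrations. Endpoints by linear interpolation between flanking doses. Not reached: highest tested concentration assigned. The concentration for 50% growth inhibition is given as GI50.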 The source made the active and inactive calls. No stated cut-off is given here; in the data, active = GI50 up to about 1.1 µM and inactive = higher.

Columns and labels:
Experiment in all cases: inhibition of tumour cell growth, NCI panel, 48 h
[1] = tested on: 786-0
[2] = tested on: A498
[3] = tested on: A549
[4] = tested on: ACHN
[5] = tested on: BT-549
[6] = tested on: CAKI-1
[7] = tested on: CCRF-CEM
[8] = tested on: COLO 205
[9] = tested on: DU-145
[10] = tested on: EKVX
[11] = tested on: HCC 2998
[12] = tested on: HCT-116
[13] = tested on: HCT-15
[14] = tested on: HL-60
[15] = tested on: HOP-62
[16] = tested on: HOP-92
[17] = tested on: HT-29
[18] = tested on: Hs-578T
[19] = tested on: IGROV-1
[20] = tested on: K562
[21] = tested on: KM12
[22] = tested on: LOX IMVI
[23] = tested on: M14
[24] = tested on: MCF7
[25] = tested on: MDA-MB-231
[26] = tested on: MDA-MB-435
[27] = tested on: MDA-N
[28] = tested on: MOLT-4
[29] = tested on: Malme-3M
[30] = tested on: NCI-H226
[31] = tested on: NCI-H23
[32] = tested on: NCI-H460
[33] = tested on: NCI-H522
[34] = tested on: NCI/ADR-RES
[35] = tested on: OVCAR-3
[36] = tested on: OVCAR-4
[37] = tested on: OVCAR-5
[38] = tested on: OVCAR-8
[39] = tested on: PC-3
[40] = tested on: RXF 393
[41] = tested on: SF-268
[42] = tested on: SF-295
[43] = tested on: SF-539
[44] = tested on: SK-MEL-28
[45] = tested on: SK-MEL-5
[46] = tested on: SK-OV-3
[47] = tested on: SN12C
[48] = tested on: SNB-19
[49] = tested on: SNB-75
[50] = tested on: SW-620
[51] = tested on: T47D
[52] = tested on: TK-10
[53] = tested on: U-251
[54] = tested on: UACC-257
[55] = tested on: UACC-62
[56] = tested on: UO-31

In the case of `COc1cc2oc(-c3ccc4c(c3)OCO4)c(OC)c(=O)c2c(OC)c1O`, the GI50 [1] is reported as 10.9 µM (inactive), the GI50 [2] is reported as 45.4 µM (inactive) and the GI50 [3] is reported as 48.1 µM (inactive). The GI50 [4] was 67.8 µM (inactive), the GI50 [5] was 31.4 µM (inactive) and the GI50 [6] was > 100 µM (inactive). The GI50 [7] was 34.7 µM (inactive), the GI50 [8] was > 100 µM (inactive) and the GI50 [9] was > 100 µM (inactive). The GI50 [10] was 37.6 µM (inactive), the GI50 [11] was 70.5 µM (inactive) and the GI50 [12] was 61 µM (inactive). The GI50 [13] was 78.7 µM, the GI50 [14] was 28.7 µM (inactive) and the GI50 [15] was 57.4 µM (inactive). The GI50 [16] was 13.6 µM (inactive), the GI50 [17] was > 100 µM (inactive) and the GI50 [18] was 61 µM (inactive). For the same molecule, the GI50 [19] was 37.5 µM (inactive), the GI50 [20] was 34.4 µM (inactive) and the GI50 [21] was > 100 µM (inactive). The GI50 [22] was 32.7 µM (inactive), the GI50 [23] was > 100 µM (inactive) and the GI50 [24] was 69.7 µM (inactive). For the same molecule, the GI50 [25] was 51.6 µM (inactive), the GI50 [26] was 70.3 µM (inactive) and the GI50 [27] was > 100 µM (inactive). For the same molecule, the GI50 [28] was 45.7 µM (inactive), the GI50 [29] was > 100 µM (inactive) and the GI50 [30] was > 100 µM (inactive). The GI50 [31] was > 100 µM (inactive), the GI50 [32] was 64.6 µM (inactive) and the GI50 [33] was 21.9 µM (inactive). The GI50 [34] was 66.8 µM (inactive), the GI50 [35] was 44.2 µM (inactive) and the GI50 [36] was 59.3 µM (inactive). The GI50 [37] was > 100 µM (inactive), the GI50 [38] was 32.8 µM (inactive) and the GI50 [39] was 68.5 µM (inactive). For the same molecule, the GI50 [40] was > 100 µM (inactive), the GI50 [41] was 27.9 µM (inactive) and the GI50 [42] was 41.7 µM (inactive). For the same molecule, the GI50 [43] was > 100 µM (inactive), the GI50 [44] was > 100 µM (inactive) and the GI50 [45] was 25.4 µM (inactive). For the same molecule, the GI50 [46] was 39.4 µM (inactive), the GI50 [47] was 71.8 µM (inactive) and the GI50 [48] was > 100 µM (inactive). The GI50 [49] was 33.2 µM (inactive), the GI50 [50] was > 100 µM (inactive) and the GI50 [51] was 31.5 µM (inactive). The GI50 [52] was 56.4 µM (inactive), the GI50 [53] was 38.4 µM (inactive) and the GI50 [54] was > 100 µM (inactive). For the same molecule, the GI50 [55] was 54.3 µM (inactive) and the GI50 [56] was 53 µM (inactive).
